Measured values from patent US20200399392A1, “INHIBITORS OF PLA2-G1B COFACTORS FOR TREATING CANCER” (priority 2018, published 2020).

Assays:
gC1qR = target: T1, gC1qR (Homo sapiens, UniProt Q07021); experiment: gC1qR-peptides binding assay (ELISA on microplates); conditions: peptide coated, His-tag-gC1qR 0 to 3 μg/well, FIG. 12
T1 sequence (Q07021 74-282): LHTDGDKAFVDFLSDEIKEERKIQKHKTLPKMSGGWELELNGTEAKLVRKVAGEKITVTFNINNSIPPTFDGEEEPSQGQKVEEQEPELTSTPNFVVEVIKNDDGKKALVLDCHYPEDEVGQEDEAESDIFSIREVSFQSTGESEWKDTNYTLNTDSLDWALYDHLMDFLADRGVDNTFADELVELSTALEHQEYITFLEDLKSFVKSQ
Procedure: The unbound protein was removed; the wells washed 2× with TBST (20 mM Tris-HCl pH 7.5, 150 mM NaCl, and 0.05% Tween-20) and the unreacted sites blocked by incubation (30 min, room temp) with 300 μl of 3% BSA in TBST. After washing (2× with TBST), the microtiter plate bound peptides was incubated (2 h, room temp.) with different amount of His-tag-gC1qR ranging from 0 to 3 μg/well in triplicate. After washing (5 times with TBST), 100 μl of anti-His tag-HRP antibody (1:1000; 71840-3, Merck) in 3% BSA in TBST was added per well and incubated for 2 h at room temperature. Microplates wells were then washed (5 times with TBST) and 100 μl of TMB ELISA substrate standard solution (UP664781, Interchim) was added per well. Reaction was stopped with 100 μl per well of a H2SO4 solution at 0.16M and OD at 450 nm was measured on a microplate reader (Tecan Infinite M1000 Pro).
A scrambled peptide or a control peptide were used as control.

pSTAT5 NT in CD4 T cells = experiment: PLA2-GIB bioassay on CD4 T cells: pSTAT5 nuclear translocation in response to IL-7, confocal microscopy; type: cell-based, human
Excerpt: Purification of Human CD4 T-lymphocytes—Venous blood was obtained from healthy volunteers through the EFS (Etablissement Français du Sang, Centre Necker-Cabanel, Paris). CD4 T-cells were purified from whole blood using RosetteSep Human CD4+ T cell Enrichment Cocktail (Stem Cell, 15062). This cocktail contains mouse and rat monoclonal antibodies purified from mouse ascites fluid or hybridoma culture supernatant, by affinity chromatography using protein A or Protein G sepharose. These antibodies are bound in bispecific tetrameric antibody complexes which are directed against cell surface antigens on human hematopoietic cells (CD8, CD16, CD19, CD36, CD56 CD66b, TCRγ/δ) and glycophorin A on red blood cells. The rosetteSep antibody cocktail crosslinks unwanted cells in human whole blood to multiple red blood cells, forming immunorosettes. This increases the density of unwanted cells, such that they pellet along with the free red blood cells when centrifuged over a buoyant density medium such as lymphocytes separation medium (Eurobio, CMSMSL01-01).
Whole blood was incubated with RosetteSep Human CD4+ T cell Enrichment Cocktail at 50 μl/ml for 20 minutes at room temperature under gentle shaking (100 rpm), diluted with an equal volume of PBS+2% foetal bovine serum (FBS) and mixed gently. The diluted samples were centrifuged 20 minutes at 1200×g on top of lymphocytes separation medium. The enriched cells were then collected from the density medium at plasma interface and washed twice with PBS+2% FBS. Cells were subsequently resuspended in RPMI 1640 medium (Lonza) supplemented with 5% FBS, 50 mM HEPES pH 7.4, glutamine, penicillin, streptomycin and fungizone (complete medium), counted with a Moxi Z mini automated cell counter (ORFLO, MXZ000). Cells suspension was adjusted at 7×10^6 cells/ml and equilibrated at least 2 h at 37° C. in a 5% CO2 humidified atmosphere.
The enriched CD4-T cell population was controlled by flow cytometry on a cytoflex (Beckman coulter). The quiescence of recovered CD4 T-cells was controlled by the low level of IL-2Rα (CD25).

Substance: NH2-PWNASWSNKSLDDIW—COOH (H-PWNASWSNKSLDDIW-OH) [PEP3]
- binding to gC1qR (gC1qR): binds
- inhibition of pSTAT5 NT (pSTAT5 NT in CD4 T cells; 0.025 μg/ml of PEP3 with 5 nM of PLA2-GIB, FIG. 5B): 18%
- inhibition of pSTAT5 NT (pSTAT5 NT in CD4 T cells; 0.5 μg/ml of PEP3 alone, n=3 donors, FIG. 5C): 5%
- effect on pSTAT5 NT (pSTAT5 NT in CD4 T cells; peptide alone, without PLA2-GIB, FIG. 5B): no effect
